{
  "source": "patent US11633473B2",
  "about": "(priority 2017, dated 2023)",
  "key": {"[1]": {"system": "neonatal BMDCs", "assay": "BMDC in vitro stimulation with PRR agonists/adjuvants, 20-24 h: cytokines by ELISA, maturation markers by flow cytometry", "format": "cell-based, C57BL/6 mice", "experimental": "Briefly, mice were sacrificed and legs removed; bones were surgically cleaned from surrounding tissue, extremities of tibiae and femurs were trimmed with sterile scissors and bone marrow flushed through a 70 μm nylon mesh strainer (Corning Life Sciences). Cell number and viability was determined by trypan blue exclusion. […] Plates were incubated in humidified atmosphere at 37° C., 5% CO2 for 6 days, with one supplement of 10 ml of complete culture medium and rmGM-CSF on day 3. On Day 6, non-adherent and loosely adherent cells were harvested by washing the plate gently with culture medium. Adherent cells were discarded. For flow cytometry analysis, BMDCs were stained (20 minutes at 4° C.) in PBS+FBS 2%+EDTA 2 mM, fixed with formaldehyde 4% (10 minutes at RT) and acquired on a BD LSRFortessa flow cytometer (BD Biosciences) or a Sony spectral analyzer SP6800 (Sony Biotechnology) and data were analyzed using FlowJo v.10 software (Tree Star). For a complete list of antibodies and fluorochromes used in the study see Table 2.\nRough (Salmonella Minnesota, R595) and smooth (Escherichia coli, O55:B5) lipopolysaccharide (LPS) were purchased from List Biological Laboratories. […] All PRR agonists employed in the studies were chosen based on and verified endotoxin free as indicated by the manufacturers. For stimulation experiments, immature BMDCs generated from newborn and adult mice were plated in round bottom 96-wells non-tissue culture-treated plates at the density of 10^5 cells/well in 200 μl of fresh complete culture medium with rmGM-CSF as described above, with the appropriate stimuli at the concentrations indicated in Table 3. Cells were incubated at 37° C. for 20-24 hours, then supernatant harvested and TNF, IL-6, IL-1β and IL-12p70 concentrations were measured by ELISA (R&D Systems). IFNβ was measured with a bioluminescent ELISA kit (LumiKine, Invivogen). Alternatively, BMDCs were stained and analyzed by flow cytometry as indicated above."}, "[2]": {"assay": "Quantification of 2′3′-cGAMP adsorption onto alum by RP-HPLC", "conditions": "for % Adsorbed to Alum: 1:10 cGAMP:alum mass ratio, saline", "quoted_text": "After vortexing for 10 seconds the sample was placed in a 37° C. incubator. Every 15 minutes the sample was vortexed for an additional 5 seconds and placed back into the incubator. […] Supernatant was immediately removed and placed into an autosampler vial undiluted for analysis by reverse-phase high performance liquid chromatography (RP-HPLC) to determine adsorption as a function of time. RP-HPLC samples were run on a Waters 2695 HPLC equipped with a 2996 photodiode array detector at a wavelength of 254 nm. A gradient was performed using a two mobile phase system of 0.1% trifluoroacetic acid in water and 0.1% trifluoroacetic acid in acetonitrile, on an Agilent Zorbax Eclipse Plus C18, 4.6×150 mm, 5 micron column at 25° C."}, "[3]": {"system": "newborn mice", "format": "in vivo", "conditions": "single dose immunization, serum at DOL 35"}, "[4]": {"system": "adult C57BL/6 mice", "format": "in vivo", "conditions": "prime-boost i.m., rHA + adjuvant, Day 35 post-prime"}, "[5]": {"system": "newborn C57BL/6 mice", "format": "in vivo", "conditions": "prime-boost DOL 7 and 14, Day 35 post-prime (DOL 42)"}, "[6]": {"system": "adult BMDCs", "assay": "BMDC in vitro stimulation with PRR agonists/adjuvants, 20-24 h: cytokines by ELISA", "format": "cell-based, C57BL/6 mice", "conditions": "increasing concentrations", "experimental": "BMDCs were generated from newborn (5-7 days old) and adult (6-12 weeks old) C57BL/6 mice with an adaptation of previously described methods (Dowling et al., 2008, Lutz et al., 1999). Briefly, mice were sacrificed and legs removed; bones were surgically cleaned from surrounding tissue, extremities of tibiae and femurs were trimmed with sterile scissors and bone marrow flushed through a 70 μm nylon mesh strainer (Corning Life Sciences). Cell number and viability was determined by trypan blue exclusion. […] For flow cytometry analysis, BMDCs were stained (20 minutes at 4° C.) in PBS+FBS 2%+EDTA 2 mM, fixed with formaldehyde 4% (10 minutes at RT) and acquired on a BD LSRFortessa flow cytometer (BD Biosciences) or a Sony spectral analyzer SP6800 (Sony Biotechnology) and data were analyzed using FlowJo v.10 software (Tree Star). […]\nRough (Salmonella Minnesota, R595) and smooth (Escherichia coli, O55:B5) lipopolysaccharide (LPS) were purchased from List Biological Laboratories. […] Cells were incubated at 37° C. for 20-24 hours, then supernatant harvested and TNF, IL-6, IL-1β and IL-12p70 concentrations were measured by ELISA (R&D Systems). IFNβ was measured with a bioluminescent ELISA kit (LumiKine, Invivogen). Alternatively, BMDCs were stained and analyzed by flow cytometry as indicated above. […]"}},
  "data": [
    {"smiles": "CCCCNc1nc(N)c2[nH]c(=O)n(Cc3ccc(C(=O)NCC(=O)O)cc3)c2n1", "note": "[CL264, reference compound]", "values": [
      {"measurement": "IL-12p70 production by neonatal BMDCs", "setting": "[1]; most effective non-toxic concentration, 20-24 h", "result": "failed to produce IL-12p′70"}
    ]},
    {"smiles": "Nc1nc2c(ncn2[C@@H]2O[C@@H]3COP(=O)(O)O[C@H]4[C@@H](O)[C@H](n5cnc6c(N)ncnc65)O[C@@H]4COP(=O)(O)O[C@@H]2[C@@H]3O)c(=O)[nH]1", "note": "[cGAMP, cyclic guanosine monophosphate (GMP)-adenosine monophosphate (AMP)]", "values": [
      {"measurement": "degradation products during incubation with alum", "setting": "[2]; 37° C., over 24 hours", "result": "No significant degradation products"},
      {"measurement": "Peak Area of cGAMP in supernatant (RP-HPLC, 254 nm)", "setting": "[2]; 15 min, 37° C.", "result": 22.53, "unit": "mAU"},
      {"measurement": "% Adsorbed to Alum", "setting": "[2]; 15 min, 37° C.", "result": 63, "unit": "%"},
      {"measurement": "Peak Area of cGAMP in supernatant (RP-HPLC, 254 nm)", "setting": "[2]; 30 min, 37° C.", "result": 22.93, "unit": "mAU"},
      {"measurement": "% Adsorbed to Alum", "setting": "[2]; 30 min, 37° C.", "result": 62.34, "unit": "%"},
      {"measurement": "Peak Area of cGAMP in supernatant (RP-HPLC, 254 nm)", "setting": "[2]; 1 hour, 37° C.", "result": 22.22, "unit": "mAU"},
      {"measurement": "% Adsorbed to Alum", "setting": "[2]; 1 hour, 37° C.", "result": 63.51, "unit": "%"},
      {"measurement": "Peak Area of cGAMP in supernatant (RP-HPLC, 254 nm)", "setting": "[2]; 2 hours, 37° C.", "result": 20.83, "unit": "mAU"},
      {"measurement": "% Adsorbed to Alum", "setting": "[2]; 2 hours, 37° C.", "result": 65.79, "unit": "%"},
      {"measurement": "Peak Area of cGAMP in supernatant (RP-HPLC, 254 nm)", "setting": "[2]; 4 hours, 37° C.", "result": 21.02, "unit": "mAU"},
      {"measurement": "% Adsorbed to Alum", "setting": "[2]; 4 hours, 37° C.", "result": 65.48, "unit": "%"},
      {"measurement": "Peak Area of cGAMP in supernatant (RP-HPLC, 254 nm)", "setting": "[2]; 24 hours, 37° C.", "result": 15.02, "unit": "mAU"},
      {"measurement": "% Adsorbed to Alum", "setting": "[2]; 24 hours, 37° C.", "result": 75.33, "unit": "%"},
      {"measurement": "cGAMP adsorbed onto alum in vitro", "setting": "[2]; summary statement in discussion, no time given", "result": "about 60%"},
      {"measurement": "upregulation of surface maturation markers (CD40, CD80, CD86), neonatal vs adult BMDCs", "setting": "[1]; 20-24 h stimulation", "result": "comparable"},
      {"measurement": "dependence of neonatal BMDC maturation marker expression on type I IFN signaling", "setting": "[1]; cGAMP 25 μg/ml, blocking anti-TNF and anti-IFNAR antibodies", "result": "type I interferon-dependent manner"},
      {"measurement": "upregulation of surface maturation marker expression, cGAMP vs R848", "setting": "[1]; neonatal and adult BMDCs, different concentrations", "result": "more effective than R848"},
      {"measurement": "IFNβ production", "setting": "[1]; newborn BMDCs, increasing concentrations", "result": "dose-dependent IFNβ production"},
      {"measurement": "median anti-rHA IgG1 titers", "setting": "[3]", "result": "did not induce detectable"},
      {"measurement": "median anti-rHA IgG2c titers", "setting": "[3]", "result": "did not induce detectable"},
      {"measurement": "median anti-rHA IgG titers", "setting": "[3]", "result": "did not induce detectable"},
      {"measurement": "median anti-rHA IgG1 titers", "setting": "[4]", "result": "0.77×10^6"},
      {"measurement": "median anti-rHA IgG2c titers", "setting": "[4]", "result": "0.82×10^6"},
      {"measurement": "median anti-rHA IgG titers", "setting": "[4]", "result": "increased anti-rHA IgG titers"},
      {"measurement": "median anti-rHA IgG1 titers", "setting": "[5]", "result": "24.51×10^3"},
      {"measurement": "median anti-rHA IgG2c titers", "setting": "[5]", "result": "0.23×10^3"},
      {"measurement": "median anti-rHA IgG titers", "setting": "[5]", "result": "20.57×10^3"},
      {"measurement": "IFNβ production", "setting": "[6]", "result": "dose-dependent IFNβ production"}
    ]}
  ]
}
